Molecules are shown by their SMILES. Bridge positions count the residues as written; N and C are the ends. Square brackets hold non-standard residues; d marks the D form. Peptide text beside a SMILES is read from it. * marks the point of attachment. Phe(4-COOH) = N[C@@H](Cc1ccc(C(=O)O)cc1)C(=O)O; Bip = N[C@@H](Cc1ccc(-c2ccccc2)cc1)C(=O)O; Phe(3-Me) = Cc1cccc(C[C@H](N)C(=O)O)c1; Cha = N[C@@H](CC1CCCCC1)C(=O)O; Carboxymethyl = O=C(O)C*; Orn = NCCC[C@H](N)C(=O)O; Aun = NCCCCCCCCCCC(=O)O; Dab = NCC[C@H](N)C(=O)O; Dap = NC[C@H](N)C(=O)O; AEEA = NCCOCCOCC(=O)O

This experiment deals with T1, PD-1/PD-L1 interaction (PE-labeled human PD-L1-Ig binding to Jurkat cell line over-expressing human PD-1) (Homo sapiens, UniProt Q15116).
T1 construct: expressed in transfected cells; host or cells: Jurkat
T1 sequence (Q15116 25-288): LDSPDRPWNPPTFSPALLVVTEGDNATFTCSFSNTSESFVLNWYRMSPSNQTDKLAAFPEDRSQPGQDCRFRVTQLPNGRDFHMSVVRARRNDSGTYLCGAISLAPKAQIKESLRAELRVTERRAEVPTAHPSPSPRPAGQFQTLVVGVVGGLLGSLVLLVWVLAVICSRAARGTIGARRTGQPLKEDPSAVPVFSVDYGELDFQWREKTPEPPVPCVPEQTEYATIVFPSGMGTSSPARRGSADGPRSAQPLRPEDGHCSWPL
Nature of the experiment: Jurkat-PD-1 Cell Binding High-Content Screening Assay (CBA). It counts as cell-based. Conditions: Jurkat cell line over-expressing human PD-1; PE-labeled PD-L1-Ig 20 nM final; read-out: Jurkat hPD1-PDL1 IC50. The procedure, abridged:
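Read-out is high-content imaging of cell-bound phycoerythrin-tagged PD-L1-Ig on fixed, Hoechst-counterstained Jurkat cells that over-express human PD-1. Compound exposure lasts 2 h at 37° C before the labeled ligand (20 nM final) is added for a further hour.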
With `Cc1cccc(C[C@@H]2NC(=O)[C@H](CC(=O)O)NC(=O)[C@H](Cc3ccc(OCC(=O)O)cc3)NC(=O)[C@H](CN)NC(=O)CSC[C@@H](C(=O)N[C@@H](CCN)C(=O)NCCCCCCCCCCC(=O)O)NC(=O)[C@H](CN)NC(=O)[C@H](Cc3ccc(O)cc3)NC(=O)[C@H](CC3CCCCC3)NC(=O)[C@H](CCN)NC(=O)[C@@H](CC(C)C)NC(=O)[C@H](CCCN)NC(=O)[C@H](Cc3ccc(O)cc3)NC(=O)[C@H](Cc3ccc(-c4ccccc4)cc3)NC(=O)[C@H](Cc3ccc(O)cc3)NC2=O)c1` [Compound 2510] ({CH2CO}-[Dap]Y(Carboxymethyl)D[Phe(3-Me)]Y[Bip]Y[Orn][dL][Dab][Cha]Y[Dap]C[Dab][Aun]-OH; thioether N-14), the IC50 is 65 nM. As to `Cc1cccc(C[C@@H]2NC(=O)[C@H](CC(=O)O)NC(=O)[C@H](Cc3ccc(OCC(=O)O)cc3)NC(=O)[C@H](CN)NC(=O)CSC[C@@H](C(=O)N[C@@H](CCN)C(=O)NCCCCCCCCCCC(=O)O)NC(=O)[C@H](CCCN)NC(=O)[C@H](Cc3ccc(O)cc3)NC(=O)[C@H](CC3CCCCC3)NC(=O)[C@H](CCN)NC(=O)[C@@H](CC(C)C)NC(=O)[C@H](CCCN)NC(=O)[C@H](Cc3ccc(O)cc3)NC(=O)[C@H](Cc3ccc(-c4ccccc4)cc3)NC(=O)[C@H](Cc3ccc(O)cc3)NC2=O)c1` [Compound 2511] ({CH2CO}-[Dap]Y(Carboxymethyl)D[Phe(3-Me)]Y[Bip]Y[Orn][dL][Dab][Cha]Y[Orn]C[Dab][Aun]-OH; thioether N-14), the IC50 is 50.1 nM. Regarding `Cc1cccc(C[C@@H]2NC(=O)[C@H](CC(=O)O)NC(=O)[C@H](Cc3ccc(OCC(=O)O)cc3)NC(=O)[C@H](CN)NC(=O)CSC[C@@H](C(=O)N[C@@H](CCN)C(=O)NCCCCCCCCCCC(=O)O)NC(=O)[C@H](CCCNC(=N)N)NC(=O)[C@H](Cc3ccc(O)cc3)NC(=O)[C@H](CC3CCCCC3)NC(=O)[C@H](CCN)NC(=O)[C@@H](CC(C)C)NC(=O)[C@H](CCCN)NC(=O)[C@H](Cc3ccc(O)cc3)NC(=O)[C@H](Cc3ccc(-c4ccccc4)cc3)NC(=O)[C@H](Cc3ccc(O)cc3)NC2=O)c1` [Compound 2512] ({CH2CO}-[Dap]Y(Carboxymethyl)D[Phe(3-Me)]Y[Bip]Y[Orn][dL][Dab][Cha]YRC[Dab][Aun]-OH; thioether N-14), the IC50 was found to be 33.4 nM. In the case of `CC(C)C[C@H]1NC(=O)[C@H](CCCN)NC(=O)[C@H](Cc2ccc(O)cc2)NC(=O)[C@H](Cc2ccc(-c3ccccc3)cc2)NC(=O)[C@H](Cc2ccc(O)cc2)NC(=O)[C@H](Cc2c[nH]c3ccccc23)NC(=O)[C@H](CC(=O)O)NC(=O)[C@H](Cc2ccc(OCC(=O)O)cc2)NC(=O)[C@H](Cc2ccc(OCC(=O)O)cc2)NC(=O)CSC[C@@H](C(=O)N[C@@H](CCN)C(=O)NCCCCCCCCCCC(=O)O)NC(=O)[C@H](CCCN)NC(=O)[C@H](Cc2ccc(O)cc2)NC(=O)[C@H](CC2CCCCC2)NC(=O)[C@H](CCN)NC1=O` [Compound 2513] ({CH2CO}-Y(Carboxymethyl)Y(Carboxymethyl)DWY[Bip]Y[Orn][dL][Dab][Cha]Y[Orn]C[Dab][Aun]-OH; thioether N-14) it was 81.3 nM; in that of `CC(C)C[C@H]1NC(=O)[C@H](CCCN)NC(=O)[C@H](Cc2ccc(O)cc2)NC(=O)[C@H](Cc2ccc(-c3ccccc3)cc2)NC(=O)[C@H](Cc2ccc(O)cc2)NC(=O)[C@H](Cc2c[nH]c3ccccc23)NC(=O)[C@H](CC(=O)O)NC(=O)[C@H](Cc2ccc(OCC(=O)O)cc2)NC(=O)[C@H](Cc2ccc(OCC(=O)O)cc2)NC(=O)CSC[C@@H](C(=O)N[C@@H](CCN)C(=O)NCCCCCCCCCCC(=O)O)NC(=O)[C@H](CN)NC(=O)[C@H](Cc2ccc(O)cc2)NC(=O)[C@H](CC2CCCCC2)NC(=O)[C@H](CCN)NC1=O` [Compound 2514] ({CH2CO}-Y(Carboxymethyl)Y(Carboxymethyl)DWY[Bip]Y[Orn][dL][Dab][Cha]Y[Dap]C[Dab][Aun]-OH; thioether N-14), 49.7 nM; in that of `CC(C)C[C@H]1NC(=O)[C@H](CCCN)NC(=O)[C@H](Cc2ccc(O)cc2)NC(=O)[C@H](Cc2ccc(-c3ccccc3)cc2)NC(=O)[C@H](Cc2ccc(O)cc2)NC(=O)[C@H](Cc2c[nH]c3ccccc23)NC(=O)[C@H](CC(=O)O)NC(=O)[C@H](Cc2ccc(C(=O)O)cc2)NC(=O)[C@H](Cc2ccc(OCC(=O)O)cc2)NC(=O)CSC[C@@H](C(=O)NCCOCCOCC(=O)NCCCCCCCCCCC(=O)O)NC(=O)[C@H](CCCCN)NC(=O)[C@H](Cc2ccc(O)cc2)NC(=O)[C@H](CC2CCCCC2)NC(=O)[C@H](CCN)NC1=O` [Compound 2515] ({CH2CO}-Y(Carboxymethyl)[Phe(4-COOH)]DWY[Bip]Y[Orn][dL][Dab][Cha]YKC[AEEA][Aun]-OH; thioether N-14), 40.4 nM.

With `CC(C)C[C@H]1NC(=O)[C@H](CCCN)NC(=O)[C@H](Cc2ccc(O)cc2)NC(=O)[C@H](Cc2ccc(-c3ccccc3)cc2)NC(=O)[C@H](Cc2ccc(O)cc2)NC(=O)[C@H](Cc2c[nH]c3ccccc23)NC(=O)[C@H](CC(=O)O)NC(=O)[C@H](Cc2ccc(OCC(=O)O)cc2)NC(=O)[C@H](Cc2ccc(OCC(=O)O)cc2)NC(=O)CSC[C@@H](C(=O)NCCOCCOCC(=O)NCCCCCCCCCCC(=O)O)NC(=O)[C@H](CCCNC(=N)N)NC(=O)[C@H](Cc2ccc(O)cc2)NC(=O)[C@H](CC2CCCCC2)NC(=O)[C@H](CCN)NC1=O` [Compound 2516] ({CH2CO}-Y(Carboxymethyl)Y(Carboxymethyl)DWY[Bip]Y[Orn][dL][Dab][Cha]YRC[AEEA][Aun]-OH; thioether N-14), the IC50 came out at 126 nM. With `CC(C)C[C@H]1NC(=O)[C@H](CCCN)NC(=O)[C@H](Cc2ccc(O)cc2)NC(=O)[C@H](Cc2ccc(-c3ccccc3)cc2)NC(=O)[C@H](Cc2ccc(O)cc2)NC(=O)[C@H](Cc2c[nH]c3ccccc23)NC(=O)[C@H](CC(=O)O)NC(=O)[C@H](Cc2ccc(OCC(=O)O)cc2)NC(=O)[C@H](CN)NC(=O)CSC[C@@H](C(=O)NCCOCCOCC(=O)NCCCCCCCCCCC(=O)O)NC(=O)[C@H](CCCCN)NC(=O)[C@H](Cc2ccc(O)cc2)NC(=O)[C@H](CC2CCCCC2)NC(=O)[C@H](CCN)NC1=O` [Compound 2517] ({CH2CO}-[Dap]Y(Carboxymethyl)DWY[Bip]Y[Orn][dL][Dab][Cha]YKC[AEEA][Aun]-OH; thioether N-14), the IC50 was 274 nM. Then `Cc1cccc(C[C@@H]2NC(=O)[C@H](CC(=O)O)NC(=O)[C@H](Cc3ccc(OCC(=O)O)cc3)NC(=O)[C@H](CN)NC(=O)CSC[C@@H](C(=O)NCCOCCOCC(=O)NCCCCCCCCCCC(=O)O)NC(=O)[C@H](CN)NC(=O)[C@H](Cc3ccc(O)cc3)NC(=O)[C@H](CC3CCCCC3)NC(=O)[C@H](CCN)NC(=O)[C@@H](CC(C)C)NC(=O)[C@H](CCCN)NC(=O)[C@H](Cc3ccc(O)cc3)NC(=O)[C@H](Cc3ccc(-c4ccccc4)cc3)NC(=O)[C@H](Cc3ccc(O)cc3)NC2=O)c1` [Compound 2518] ({CH2CO}-[Dap]Y(Carboxymethyl)D[Phe(3-Me)]Y[Bip]Y[Orn][dL][Dab][Cha]Y[Dap]C[AEEA][Aun]-OH; thioether N-14), with 207 nM; and `Cc1cccc(C[C@@H]2NC(=O)[C@H](CC(=O)O)NC(=O)[C@H](Cc3ccc(OCC(=O)O)cc3)NC(=O)[C@H](CN)NC(=O)CSC[C@@H](C(=O)NCCOCCOCC(=O)NCCCCCCCCCCC(=O)O)NC(=O)[C@H](CCCN)NC(=O)[C@H](Cc3ccc(O)cc3)NC(=O)[C@H](CC3CCCCC3)NC(=O)[C@H](CCN)NC(=O)[C@@H](CC(C)C)NC(=O)[C@H](CCCN)NC(=O)[C@H](Cc3ccc(O)cc3)NC(=O)[C@H](Cc3ccc(-c4ccccc4)cc3)NC(=O)[C@H](Cc3ccc(O)cc3)NC2=O)c1` [Compound 2519] ({CH2CO}-[Dap]Y(Carboxymethyl)D[Phe(3-Me)]Y[Bip]Y[Orn][dL][Dab][Cha]Y[Orn]C[AEEA][Aun]-OH; thioether N-14), with 152 nM; and `Cc1cccc(C[C@@H]2NC(=O)[C@H](CC(=O)O)NC(=O)[C@H](Cc3ccc(OCC(=O)O)cc3)NC(=O)[C@H](CN)NC(=O)CSC[C@@H](C(=O)NCCOCCOCC(=O)NCCCCCCCCCCC(=O)O)NC(=O)[C@H](CCCNC(=N)N)NC(=O)[C@H](Cc3ccc(O)cc3)NC(=O)[C@H](CC3CCCCC3)NC(=O)[C@H](CCN)NC(=O)[C@@H](CC(C)C)NC(=O)[C@H](CCCN)NC(=O)[C@H](Cc3ccc(O)cc3)NC(=O)[C@H](Cc3ccc(-c4ccccc4)cc3)NC(=O)[C@H](Cc3ccc(O)cc3)NC2=O)c1` [Compound 2520] ({CH2CO}-[Dap]Y(Carboxymethyl)D[Phe(3-Me)]Y[Bip]Y[Orn][dL][Dab][Cha]YRC[AEEA][Aun]-OH; thioether N-14), with 233 nM. As to `CC(C)C[C@H]1NC(=O)[C@H](CCCN)NC(=O)[C@H](Cc2ccc(O)cc2)NC(=O)[C@H](Cc2ccc(-c3ccccc3)cc2)NC(=O)[C@H](Cc2ccc(O)cc2)NC(=O)[C@H](Cc2c[nH]c3ccccc23)NC(=O)[C@H](CC(=O)O)NC(=O)[C@H](Cc2ccc(OCC(=O)O)cc2)NC(=O)[C@H](Cc2ccc(OCC(=O)O)cc2)NC(=O)CSC[C@@H](C(=O)NCCOCCOCC(=O)NCCCCCCCCCCC(=O)O)NC(=O)[C@H](CCCN)NC(=O)[C@H](Cc2ccc(O)cc2)NC(=O)[C@H](CC2CCCCC2)NC(=O)[C@H](CCN)NC1=O` [Compound 2521] ({CH2CO}-Y(Carboxymethyl)Y(Carboxymethyl)DWY[Bip]Y[Orn][dL][Dab][Cha]Y[Orn]C[AEEA][Aun]-OH; thioether N-14), the IC50 is 89.1 nM.

For the molecule `CC(C)C[C@H]1NC(=O)[C@H](CCCN)NC(=O)[C@H](Cc2ccc(O)cc2)NC(=O)[C@H](Cc2ccc(-c3ccccc3)cc2)NC(=O)[C@H](Cc2ccc(O)cc2)NC(=O)[C@H](Cc2c[nH]c3ccccc23)NC(=O)[C@H](CC(=O)O)NC(=O)[C@H](Cc2ccc(OCC(=O)O)cc2)NC(=O)[C@H](Cc2ccc(OCC(=O)O)cc2)NC(=O)CSC[C@@H](C(=O)NCCOCCOCC(=O)NCCCCCCCCCCC(=O)O)NC(=O)[C@H](CN)NC(=O)[C@H](Cc2ccc(O)cc2)NC(=O)[C@H](CC2CCCCC2)NC(=O)[C@H](CCN)NC1=O` [Compound 2522] ({CH2CO}-Y(Carboxymethyl)Y(Carboxymethyl)DWY[Bip]Y[Orn][dL][Dab][Cha]Y[Dap]C[AEEA][Aun]-OH; thioether N-14), the IC50 was 340 nM.

As usually defined, the IC50 is the concentration needed to halve the response being measured.

Source of the values: patent US20260022142A1, “MACROCYCLIC IMMUNOMODULATORS” (Bristol-Myers Squibb Company, priority 2022, published 2026).
